Data from patent US6924353B2, “Inhibitors for RNA viruses” (priority 2003, dated 2005).
Entries after “also recorded” stand apart in the source; their conditions may differ. Where no end group is shown, it is not given here.

How the values were obtained:
RSV = assay: Infectivity inhibition by natural and synthetic RIP, RSV in HEp2; type: cell-based, respiratory syncytial virus; conditions: 10 μg/ml; for Log TCID/50: six days
Description: (§1) Infectivity Inhibition of RNA Viruses by Synthetic RIP: For comparison, the natural and the synthetic RIPs were tested in cell cultures infected with different RNA viruses. The cell line MA 104 was used for infecting rotavirus SA 11 strain. HEp2 cells were used for infecting RSV and PIV3 viruses. The cells were infected in serial dilutions from 10^−2 to 10^−8; three wells were used for each dilution. After absorption of the virus, the cultures were divided into three groups. Group one received medium containing PBS as a positive control, group two received medium containing 10 μg/ml of natural RIP, and for the remaining group the medium was incorporated with 10 μg/ml synthetic RIP. The tests were read after six days and TCID/50 were calculated from CPE.
The approved drug ribovirin was tested for RSV virus in HEp2 cells at 10 μg/ml concentration. […] Synthetic RIP should be more inhibitory by increasing the concentration.

PIV3 = assay: Infectivity inhibition by natural and synthetic RIP, PIV3 in HEp2; type: cell-based, human parainfluenza type 3; conditions: 10 μg/ml
Description: as §1

rotavirus strain SA 11 = assay: Biological activity of trypsin fragments and synthetic versions, MA104 cells infected with rotavirus; type: cell-based; conditions: tested at 20, 10, 5, 2.5, and 1.0 μg/ml
Description: Biological Activity of Fragments: Initially, the inhibitory activity of the fragments was tested on African green monkey kidney cells MA104 infected with rotavirus strain SA 11. Dulbecco Modified Eagle's Medium (DMEM) containing 10% newborn calf serum (NBCS), L-glutamine and the antibiotics penicillin and streptomycin was used to grow MA 104 and HEp2 cells into monolayers after being monodispersed with a mixture of trypsin/EDTA. The same medium without serum, containing 1 μg/ml trypsin, designated as “special medium,” was used after infecting MA 104 cells with SA 11 virus including the controls. Initially, each fraction was tested on monolayers of MA 104 cells grown in 48 well plates and infected at 10^−2 dilution of SA 11 virus. Before infecting, MA 104 cells were washed with serum free medium. The virus was allowed to absorb for 1 hour at 37° C. in a humid CO2 incubator. After absorption, 0.9 ml of medium was added to each well. Each fraction was tested at the concentration of 20, 10, 5, 2.5, and 1.0 μg/ml. Cells infected with virus received PBS to serve as positive controls, for virus CPE. The tests were read after six days.
The sequencing and synthesis was contracted out to the Protein Core Laboratory of Baylor College of Medicine, Houston, Tex.

rotavirus SA 11 strain = assay: Infectivity inhibition by natural and synthetic RIP, rotavirus in MA 104; type: cell-based; conditions: 10 μg/ml; for Log TCID/50: six days
Description: as §1

**Q.** For `NC(=O)c1ncn([C@@H]2O[C@H](CO)[C@@H](O)[C@H]2O)n1` [ribovirin, reference compound], which “Log TCID/50” value (RSV) is on record?
**A.** 5.4 Log TCID/50

**Q.** AKAGSDNTKG [synthetic RIP] was tested. Which “Log Inhibition of infectivity” value (PIV3) did it give?
**A.** 2.0 Log

**Q.** What about the “Log TCID/50” value (PIV3; six days) of the same molecule?
**A.** 5.8 Log TCID/50

**Q.** What about the “antiviral activity (inhibition of rotavirus) of fragment and synthetic versions” value (rotavirus strain SA 11; listed as SEQ. ID. NO.: 4) of the same molecule?
**A.** most active domain; also recorded: good results

**Q.** What about the “antiviral activity (inhibition of rotavirus) of fragment and synthetic versions” value (rotavirus strain SA 11; listed as SEQ. ID. No.: 4) of the same molecule?
**A.** the most inhibition

**Q.** What about the “Log Inhibition of infectivity” value (rotavirus SA 11 strain) of the same molecule?
**A.** 1.9 Log

**Q.** What about the “Log TCID/50” value (rotavirus SA 11 strain) of the same molecule?
**A.** 4.5 Log TCID/50

**Q.** And the “Log TCID/50” value (rotavirus SA 11 strain; listed as Syn RIP)?
**A.** 4.3 Log TCID/50

**Q.** What about the “Log Inhibition of infectivity” value (RSV) of the same molecule?
**A.** 1.7 Log

**Q.** And the “Log TCID/50” value (RSV)?
**A.** 5.8 Log TCID/50

**Q.** What about the “Log TCID/50” value (RSV; listed as Syn RIP) of the same molecule?
**A.** 4.5 Log TCID/50

**Q.** Which results are given for AKAGSDNTKGGVYPMFGM [SEQ ID. NO.: 2]?
**A.** antiviral activity (inhibition of rotavirus) of fragment and synthetic versions (rotavirus strain SA 11): most active fragment; antiviral activity (inhibition of rotavirus) of fragment and synthetic versions (rotavirus strain SA 11; listed as SEQ. ID. NO.: 2): effective; also recorded: good results

**Q.** “A K A G S (AKAGS; SYNTHESIZED. CORRESPONDS TO POSITIONS 1-5 OF SEQ. ID. NO. 2) [SEQ. ID. NO.: 5, synthetic version, five amino acids]” was tested. Which “antiviral activity (inhibition of rotavirus) of fragment and synthetic versions” value (rotavirus strain SA 11) did it give?
**A.** good results

**Q.** How did the “antiviral activity (inhibition of rotavirus) of fragment and synthetic versions” value (rotavirus strain SA 11) turn out when “A K A G S D N T K G G V Y P M (ALAGSDNTKGGVYPM; SYNTHESIZED. CORRESPONDS TO POSITIONS 1-15 OF SEQ. ID. NO. 2) [SEQ. ID. NO.: 3, synthetic version, 15 amino acids]” was run?
**A.** effective; also recorded: good results
